This is an account of results in patent US8207172B2 (Bayer Intellectual Property GmbH, priority 2004, dated 2012).

pIC50: −log10 of the molar value. Structures can show the parent of a compound that is named as a salt.

Assay [1] has as its system BT474 (human breast carcinoma). Description: In vitro tumor cell proliferation assay (Cell Titer-Glo luminescent cell viability), BT474. It counts as cell-based. The conditions noted are these: BT-474, 72 h, BT474 cells, 72 hours of drug exposure, ATP luminescence readout, read-out: IC50, anti-proliferative activity (inhibition of cell proliferation). The essentials:
(§1)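 CellTiter-Glo luminescence (ATP content of metabolically active cells) after 72 h compound exposure at 37° C gave IC50s.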
On the technique in general: In ATP-based viability assays light output follows the ATP content of the culture.

The subject of assay [2] is A431 cells (human epidermoid carcinoma). The experiment in a line: In vitro tumor cell proliferation assay (Cell Titer-Glo luminescent cell viability), A431. The settings on record: A-431, 72 h, 72 hours of drug exposure, ATP luminescence readout, read-out: IC50, anti-proliferative activity (inhibition of cell proliferation). It counts as cell-based. The gist of the method:
as §1

As to `CN(C)CC(=O)N1CCC(Cn2cc3c(n2)CCc2c-3sc3ncnc(Nc4ccc(OCc5cccc(F)c5)c(Cl)c4)c23)CC1` [Example 241, N-{3-chloro-4-[(3-fluorobenzyl)oxy]phenyl}-2-({1-[(dimethylamino)acetyl]piperidin-4-yl}methyl)-4,5-dihydro-2H-pyrimido[5′,4′:4,5]thieno[2,3-e]indazol-6-amine trifluoroacetate], the pIC50 in assay [1] was not below 6.00; in assay [2] it was not below 5.30.
For the compound `CCN(CC)CC(=O)N1CCC(Cn2cc3c(n2)CCc2c-3sc3ncnc(Nc4ccc(OCc5cccc(F)c5)c(Cl)c4)c23)CC1` [Example 242, N-{3-chloro-4-[(3-fluorobenzyl)oxy]phenyl}-2-({1-[(diethylamino)acetyl]piperidin-4-yl}methyl)-4,5-dihydro-2H-pyrimido[5′,4′:4,5]thieno[2,3-e]indazol-6-amine trifluoroacetate], the pIC50 in assay [1] is not below 6.00; in assay [2] it was not below 5.30.
For the compound `CCCN1CCC(Cn2cc3c(n2)CCc2c-3sc3ncnc(Nc4ccc(OCc5cccc(F)c5)c(Cl)c4)c23)CC1` [Example 243, N-{3-chloro-4-[(3-fluorobenzyl)oxy]phenyl}-2-[(1-propylpiperidin-4-yl)methyl]-4,5-dihydro-2H-pyrimido[5′,4′:4,5]thieno[2,3-e]indazol-6-amine], the pIC50 in assay [1] is not below 6.00; in assay [2], not below 5.30.
In the case of `CCN1CCC(Cn2cc3c(n2)CCc2c-3sc3ncnc(Nc4ccc(OCc5cccc(F)c5)c(Cl)c4)c23)CC1` [Example 244, N-{3-chloro-4-[(3-fluorobenzyl)oxy]phenyl}-2-[(1-ethylpiperidin-4-yl)methyl]-4,5-dihydro-2H-pyrimido[5′,4′:4,5]thieno[2,3-e]indazol-6-amine], the pIC50 is not below 6.00 in assay [1] and not below 5.30 in assay [2].
In the case of `CC(C)N1CCC(Cn2cc3c(n2)CCc2c-3sc3ncnc(Nc4ccc(OCc5cccc(F)c5)c(Cl)c4)c23)CC1` [Example 245, N-{3-chloro-4-[(3-fluorobenzyl)oxy]phenyl}-2-[(1-isopropylpiperidin-4-yl)methyl]-4,5-dihydro-2H-pyrimido[5′,4′:4,5]thieno[2,3-e]indazol-6-amine], the pIC50 was not below 6.00 in assay [1] and not below 5.30 in assay [2].
The like results for `Fc1cccc(COc2ccc(Nc3ncnc4sc5c(c34)CCc3nn(CCC4CCN(Cc6ccco6)CC4)cc3-5)cc2Cl)c1` [Example 248, N-{3-chloro-4-[(3-fluorobenzyl)oxy]phenyl}-2-{2-[1-(2-furylmethyl)piperidin-4-yl]ethyl}-4,5-dihydro-2H-pyrimido[5′,4′:4,5]thieno[2,3-e]indazol-6-amine] were, in that order, not below 6.00 and not below 5.30.
With `OCC(CO)N1CCC(CCn2cc3c(n2)CCc2c-3sc3ncnc(Nc4ccc(OCc5cccc(F)c5)c(Cl)c4)c23)CC1` [Example 249, 2-(4-{2-[6-({3-chloro-4-[(3-fluorobenzyl)oxy]phenyl}amino)-4,5-dihydro-2H-pyrimido[5′,4′:4,5]thieno[2,3-e]indazol-2-yl]ethyl}piperidin-1-yl)propane-1,3-diol], the pIC50 in assay [1] is not below 6.00; in assay [2], not below 5.30.
On to `CCC(CC)CN1CCC(CCn2cc3c(n2)CCc2c-3sc3ncnc(Nc4ccc(OCc5cccc(F)c5)c(Cl)c4)c23)CC1` [Example 250, N-{3-chloro-4-[(3-fluorobenzyl)oxy]phenyl}-2-{2-[1-(2-ethylbutyl)piperidin-4-yl]ethyl}-4,5-dihydro-2H-pyrimido[5′,4′:4,5]thieno[2,3-e]indazol-6-amine], for which the results for the pIC50 in assay [1] and in assay [2] were not below 6.00 and not below 5.30, respectively.
For `CC(C)CN1CCC(CCn2cc3c(n2)CCc2c-3sc3ncnc(Nc4ccc(OCc5cccc(F)c5)c(Cl)c4)c23)CC1` [Example 251, N-{3-chloro-4-[(3-fluorobenzyl)oxy]phenyl}-2-[2-(1-isobutylpiperidin-4-yl)ethyl]-4,5-dihydro-2H-pyrimido[5′,4′:4,5]thieno[2,3-e]indazol-6-amine], in that order: not below 6.00 and not below 5.30.
On to `CC(C)N1CCC(CCn2cc3c(n2)CCc2c-3sc3ncnc(Nc4ccc(OCc5cccc(F)c5)c(Cl)c4)c23)CC1` [Example 252, N-{3-chloro-4-[(3-fluorobenzyl)oxy]phenyl}-2-[2-(1-isopropylpiperidin-4-yl)ethyl]-4,5-dihydro-2H-pyrimido[5′,4′:4,5]thieno[2,3-e]indazol-6-amine], for which the pIC50 in assay [1] is not below 6.00; in assay [2], not below 5.30.
The like results for `CCCN1CCC(CCn2cc3c(n2)CCc2c-3sc3ncnc(Nc4ccc(OCc5cccc(F)c5)c(Cl)c4)c23)CC1` [Example 253, N-{3-chloro-4-[(3-fluorobenzyl)oxy]phenyl}-2-[2-(1-propylpiperidin-4-yl)ethyl]-4,5-dihydro-2H-pyrimido[5′,4′:4,5]thieno[2,3-e]indazol-6-amine] were, in that order, not below 6.00 and not below 5.30.
The like results for `CCN1CCC(CCn2cc3c(n2)CCc2c-3sc3ncnc(Nc4ccc(OCc5cccc(F)c5)c(Cl)c4)c23)CC1` [Example 254, N-{3-chloro-4-[(3-fluorobenzyl)oxy]phenyl}-2-[2-(1-ethylpiperidin-4-yl)ethyl]-4,5-dihydro-2H-pyrimido[5′,4′:4,5]thieno[2,3-e]indazol-6-amine] were, in that order, not below 6.00 and not below 5.30.
For `CN1CCC(CCn2cc3c(n2)CCc2c-3sc3ncnc(Nc4ccc(OCc5cccc(F)c5)c(Cl)c4)c23)CC1` [Example 255, N-{3-chloro-4-[(3-fluorobenzyl)oxy]phenyl}-2-[2-(1-methylpiperidin-4-yl)ethyl]-4,5-dihydro-2H-pyrimido[5′,4′:4,5]thieno[2,3-e]indazol-6-amine], the pIC50 in assay [1] was not below 6.00; in assay [2], not below 5.30.
For `CC(C)CCN1CCC(CCn2cc3c(n2)CCc2c-3sc3ncnc(Nc4ccc(OCc5cccc(F)c5)c(Cl)c4)c23)CC1` [Example 256, N-{3-chloro-4-[(3-fluorobenzyl)oxy]phenyl}-2-{2-[1-(3-methylbutyl)piperidin-4-yl]ethyl}-4,5-dihydro-2H-pyrimido[5′,4′:4,5]thieno[2,3-e]indazol-6-amine], in that order: not below 6.00 and not below 5.30.
`OCC(O)CN1CCC(CCn2cc3c(n2)CCc2c-3sc3ncnc(Nc4ccc(OCc5cccc(F)c5)c(Cl)c4)c23)CC1` (centres unmarked) [Example 257, 3-(4-{2-[6-({3-chloro-4-[(3-fluorobenzyl)oxy]phenyl}amino)-4,5-dihydro-2H-pyrimido[5′,4′:4,5]thieno[2,3-e]indazol-2-yl]ethyl}piperidin-1-yl)propane-1,2-diol]: the pIC50 in assay [1] is not below 6.00; in assay [2], not below 5.30.
For `CS(=O)(=O)OCCn1ncc2c1CCc1c-2sc2ncnc(Nc3ccc(OCc4cccc(F)c4)c(Cl)c3)c12` [Example 258, 2-[6-({3-chloro-4-[(3-fluorobenzyl)oxy]phenyl}amino)-4,5-dihydro-3H-pyrimido[5′,4′:4,5]thieno[2,3-e]indazol-3-yl]ethyl methanesulfonate], in that order: not below 6.00 and not below 5.30.
As for `Fc1cccc(COc2ccc(Nc3ncnc4sc5c(c34)CCc3c-5cnn3CCNCCN3CCOCC3)cc2Cl)c1` [Example 259, N-{3-chloro-4-[(3-fluorobenzyl)oxy]phenyl}-3-{2-[(2-morpholin-4-ylethyl)amino]ethyl}-4,5-dihydro-3H-pyrimido[5′,4′:4,5]thieno[2,3-e]indazol-6-amine], the pIC50 in assay [1] is not below 5.30; in assay [2], not below 4.30.
As for `COCCN(CCOC)CCn1ncc2c1CCc1c-2sc2ncnc(Nc3ccc(OCc4cccc(F)c4)c(Cl)c3)c12` [Example 260, 3-{2-[bis(2-methoxyethyl)amino]ethyl}-N-{3-chloro-4-[(3-fluorobenzyl)oxy]phenyl}-4,5-dihydro-3H-pyrimido[5′,4′:4,5]thieno[2,3-e]indazol-6-amine], the pIC50 in assay [1] is not below 5.30; in assay [2] it was not below 4.30.
For `COCCN(C)CCn1ncc2c1CCc1c-2sc2ncnc(Nc3ccc(OCc4cccc(F)c4)c(Cl)c3)c12` [Example 261, N-{3-chloro-4-[(3-fluorobenzyl)oxy]phenyl}-3-{2-[(2-methoxyethyl)(methyl)amino]ethyl}-4,5-dihydro-3H-pyrimido[5′,4′:4,5]thieno[2,3-e]indazol-6-amine], in that order: not below 6.00 and not below 4.30.
The like results for `OCCN(CCO)CCn1ncc2c1CCc1c-2sc2ncnc(Nc3ccc(OCc4cccc(F)c4)c(Cl)c3)c12` [Example 262, 2,2′-({2-[6-({3-chloro-4-[(3-fluorobenzyl)oxy]phenyl}amino)-4,5-dihydro-3H-pyrimido[5′,4′:4,5]thieno[2,3-e]indazol-3-yl]ethyl}imino)diethanol] were, in that order, not below 6.00 and not below 4.30.
For `Fc1cccc(COc2ccc(Nc3ncnc4sc5c(c34)CCc3c-5cnn3CCN3CCN(Cc4ccncc4)CC3)cc2Cl)c1` [Example 263, N-{3-chloro-4-[(3-fluorobenzyl)oxy]phenyl}-3-{2-[4-(pyridin-4-ylmethyl)piperazin-1-yl]ethyl}-4,5-dihydro-3H-pyrimido[5′,4′:4,5]thieno[2,3-e]indazol-6-amine], in that order: not below 6.00 and not below 4.30.
For `OCCNCCn1ncc2c1CCc1c-2sc2ncnc(Nc3ccc(OCc4cccc(F)c4)c(Cl)c3)c12` [Example 264, 2-({2-[6-({3-chloro-4-[(3-fluorobenzyl)oxy]phenyl}amino)-4,5-dihydro-3H-pyrimido[5′,4′:4,5]thieno[2,3-e]indazol-3-yl]ethyl}amino)ethanol], the pIC50 in assay [1] was not below 6.00; in assay [2] it was not below 4.30.
